Laboratory results published in patent US20080085264A1, “METHODS FOR ENHANCING STEM CELL ENGRAFTMENT DURING TRANSPLANTATION” (priority 2003, published 2008).

Tested on: Sca-1+c-kit-lin- mBM cells
Assay: Chemotaxis assay, CXCL12 induced migration of sorted Sca-1+c-kit-lin- mBM cells
Assay type: cell-based, mouse
Conditions: 5 mM Diprotin A
Description: Chemotaxis assays were performed using 96-well chemotaxis chambers (NeuroProbe, Gaithersburg, Md.) in accordance with manufacturer's instructions as described previously with minor variations (Christopherson K W, 2nd, et al. J Immunol. 2002; 169:7000-7008; Christopherson K W, 2nd, et al. Blood. 2001; 98:3562-3568; Christopherson K, 2nd, et al. Immunol Lett. 1999; 69:269-273). Briefly 300 μl of RPMI supplemented with 10% FBS and either 0, 100, 200, and 400 ng/ml of mouse CXCL12 chemokine was added to the lower chamber. Ten-thousand sorted cells in 50 μL of media were added to the upper side of the membrane (5.7 mm diameter, 5 μm pore size, polycarbonate membrane.)
Total cell number in the lower well was obtained by counting using hemocytometer after 4 hours of incubation at 37° C., 5% CO2. Percent migration was calculated by dividing the number of the cells in the lower well by the total cell input multiplied by 100 and subtracting random migration (always less than 5%) to the lower chamber without chemokine presence. Three samples were analyzed separately in triplicate, and then the data averaged for statistical analysis.
The N-terminal truncated mouse CXCL12 (CXCL12 (amino acids 3-68)) was produced by treatment of mouse CXCL12 with DPPIV (Enzyme Systems Products, Livermore, Calif.) for 18 hrs at 37° C. in PBS pH 7.4. […]

## Ile-Pro-Ile [Diprotin A]
100 ng/ml CXCL12
  increase in total cell migration: 2.5 fold
200 and 400 ng/ml CXCL12
  increase in total cell migration: two-fold
